Data published in patent US12655116B2, “Substituted isophthalic acid diamides” (Bayer Aktiengesellschaft, priority 2020, dated 2026).

Columns and labels:
[1] = system: AVEFA; experiment: Post-emergence herbicidal action against AVEFA; type: in vivo, Avena fatua; details: 20 g/ha, visual assessment about 3 weeks after treatment, 100% = plants have died, 0% = like control plants
Experimental: Seeds of monocotyledonous and dicotyledonous weed and crop plants are laid out in sandy loam soil in wood-fiber pots, covered with soil and cultivated in a greenhouse under good growth conditions. 2 to 3 weeks after sowing, the test plants are treated at the one-leaf stage. The compounds of the invention, formulated in the form of wettable powders (WP) or as emulsion concentrates (EC), are then sprayed onto the green parts of the plants in the form of an aqueous suspension or emulsion at a water application rate equivalent to 600 to 800 l/ha, with addition of 0.2% wetting agent. After the test plants have been left to stand in the greenhouse under optimal growth conditions for about 3 weeks, the action of the preparations is assessed visually in comparison to untreated controls (herbicidal action in percent (%): 100% activity=the plants have died, 0% activity=like control plants). […] The tables below illustrate, in an illustrative manner, the post-emergence herbicidal action of the compounds of the invention, the herbicidal activity being stated in percent.

[2] = system: SETVI; experiment: Pre-emergence herbicidal action against SETVI; type: in vivo, Setaria viridis; details: dosage 80 g/ha
Outline: (§1)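 Greenhouse pots of sandy loam held seeds covered with soil, onto which the compound was applied before emergence. An aqueous suspension or emulsion of WP or EC was used at 600 to 800 l/ha with 0.2% wetting agent. Percent damage was judged visually at 3 weeks.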

[3] = system: ABUTH; experiment: Pre-emergence herbicidal action against ABUTH; type: in vivo, Abutilon theophrasti; details: for Pre-emergence action against ABUTH (herbicidal activity): 80 g/ha, scored visually after 3 weeks vs untreated controls (100% = plants have died, 0% = like control plants); for Pre-emergence action against ABUTH (herbicidal activity in percent): dosage 20 g/ha, scored visually after 3 weeks vs untreated controls, 100% = plants have died, 0% = like control plants
Outline: as §1

[4] = system: ECHCG; experiment: Post-emergence herbicidal action against ECHCG; type: in vivo, Echinochloa crus-galli
Outline: (§2)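 A WP or EC formulation diluted in water with 0.2% wetting agent was sprayed at 600 to 800 l/ha onto one-leaf-stage plants grown in sandy loam. About 3 weeks later, action was rated visually in percent, 100% being dead plants.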

[5] = system: PHBPU; experiment: Post-emergence herbicidal action against PHBPU; type: in vivo, Pharbitis purpurea; details: dosage 20 g/ha
Outline: as §2

[6] = system: VIOTR; experiment: Pre-emergence herbicidal action against VIOTR; type: in vivo, Viola tricolor
Outline: as §1

[7] = system: AVEFA; experiment: Pre-emergence herbicidal action against AVEFA; type: in vivo, Avena fatua; details: 80 g/ha, pre-emergence
Outline: as §1

[8] = system: AMARE; experiment: Pre-emergence herbicidal action against AMARE; type: in vivo, Amaranthus retroflexus
Outline: as §1

[9] = system: SETVI; experiment: Post-emergence herbicidal action against SETVI; type: in vivo, Setaria viridis
Outline: as §2

[10] = system: MATIN; experiment: Pre-emergence herbicidal action against MATIN; type: in vivo, Matricaria inodora
Outline: as §1

[11] = system: MATIN; experiment: Post-emergence herbicidal action against MATIN; type: in vivo, Matricaria inodora
Outline: as §2

[12] = system: ALOMY; experiment: Pre-emergence herbicidal action against ALOMY; type: in vivo, Alopecurus myosuroides; details: for Pre-emergence action against ALOMY (herbicidal activity): 80 g/ha, scored visually after 3 weeks vs untreated controls (100% = plants have died, 0% = like control plants)
Outline: as §1

[13] = system: DIGSA; experiment: Pre-emergence herbicidal action against DIGSA; type: in vivo, Digitaria sanguinalis
Outline: as §1

[14] = system: ABUTH; experiment: Post-emergence herbicidal action against ABUTH; type: in vivo, Abutilon theophrasti; details: visual assessment about 3 weeks after treatment vs untreated controls
Outline: as §2

[15] = system: ECHCG; experiment: Pre-emergence herbicidal action against ECHCG; type: in vivo, Echinochloa crus-galli; details: 80 g/ha
Outline: as §1

[16] = system: PHBPU; experiment: Pre-emergence herbicidal action against PHBPU; type: in vivo, Pharbitis purpurea; details: dosage 80 g/ha
Outline: as §1

[17] = system: ALOMY; experiment: Post-emergence herbicidal action against ALOMY; type: in vivo, Alopecurus myosuroides; details: dosage 20 g/ha, visual assessment about 3 weeks after treatment vs untreated controls
Outline: as §2

[18] = system: AMARE; experiment: Post-emergence herbicidal action against AMARE; type: in vivo, Amaranthus retroflexus; details: 20 g/ha, visual assessment about 3 weeks after treatment, 100% = plants have died, 0% = like control plants
Outline: as §2

[19] = system: VERPE; experiment: Post-emergence herbicidal action against VERPE; type: in vivo, Veronica persica
Outline: as §2

[20] = system: VIOTR; experiment: Post-emergence herbicidal action against VIOTR; type: in vivo, Viola tricolor
Outline: as §2

[21] = system: VERPE; experiment: Pre-emergence herbicidal action against VERPE; type: in vivo, Veronica persica; details: dosage 80 g/ha
Outline: as §1

[22] = 20 g/ha, scored visually after 3 weeks vs untreated controls, 100% = plants have died, 0% = like control plants
[23] = 80 g/ha, scored visually after 3 weeks vs untreated controls (100% = plants have died, 0% = like control plants)

| SMILES | Post-emergence action at 20 g/ha against AVEFA in % [1] [%] | Pre-emergence action against SETVI in % [2] [%] | Pre-emergence action against ABUTH (herbicidal activity) [3] [%] | Pre-emergence action against ABUTH (herbicidal activity in percent) [3] [%] | Post-emergence action against ECHCG in % ([4]; dosage 20 g/ha) [%] | Post-emergence action against PHBPU in % [5] [%] | Pre-emergence action against VIOTR in % ([6]; dosage 20 g/ha) [%] | Pre-emergence action against VIOTR in % ([6]; dosage 80 g/ha) [%] | Pre-emergence action against AVEFA in % [7] [%] | Pre-emergence action against AMARE in % [8, 22] [%] | Pre-emergence action against AMARE in % [8, 23] [%] | Post-emergence action against SETVI in % ([9]; dosage 20 g/ha) [%] | Pre-emergence action against MATIN in % ([10]; dosage 20 g/ha) [%] | Pre-emergence action against MATIN in % ([10]; dosage 80 g/ha) [%] | Post-emergence action against MATIN in % ([11]; dosage 20 g/ha) [%] | Pre-emergence action against ALOMY (herbicidal activity) [12] [%] | Post-emergence action against ABUTH in % ([14]; dosage 20 g/ha) [%] | Pre-emergence action against ECHCG in % [15] [%] | Pre-emergence action against PHBPU in % [16] [%] | Post-emergence action at 20 g/ha against AMARE in % [18] [%] | other results |
| --- | --- | --- | --- | --- | --- | --- | --- | --- | --- | --- | --- | --- | --- | --- | --- | --- | --- | --- | --- | --- | --- |
| CCn1nnnc1NC(=O)c1ccc(C(F)(F)F)c(C(=O)NCC(F)(F)F)c1C [Example 2-29] | 80 | 100 | 100 | 100 | 80 | 80 | 100 | 100 | 100 | 100 | 100 | 80 | 100 | 100 | 80 | 80 | 80 | 100 | 80 | – | Pre-emergence action against DIGSA in % ([13]; dosage 20 g/ha): 90%; Pre-emergence action against DIGSA in % ([13]; dosage 80 g/ha): 100% |
| CCn1nnnc1NC(=O)c1ccc(C(F)F)c(C(=O)NC2CC2)c1SC [Example 2-89] | 80 | 100 | 100 | 100 | 90 | 80 | 90 | 100 | 90 | 90 | 100 | 100 | 90 | 100 | 90 | 100 | 90 | 90 | – | 100 | Post-emergence action against ALOMY in % [17]: 90%; Post-emergence action against SETVI in % ([9]; dosage 5 g/ha): 90%; Post-emergence action against VERPE in % ([19]; 5 g/ha): 80%; Post-emergence action against VERPE in % ([19]; 20 g/ha): 90%; Post-emergence action against MATIN in % ([11]; dosage 5 g/ha): 90%; Post-emergence action against ABUTH in % ([14]; dosage 5 g/ha): 90%; Post-emergence action against VIOTR in % ([20]; 5 g/ha): 90%; Post-emergence action against VIOTR in % ([20]; 20 g/ha): 90%; Pre-emergence action against VERPE in % [21]: 90% |
| CCc1c(C(=O)Nc2nnnn2CC)ccc(C(F)(F)F)c1C(=O)NC(C)C1CC1 (centres unmarked) [Example 2-341] | 90 | 90 | 100 | 100 | 90 | 80 | 90 | 100 | 90 | 100 | 100 | – | 100 | 100 | 80 | 90 | 80 | 100 | 80 | 100 | Post-emergence action against ECHCG in % ([4]; dosage 5 g/ha): 80%; Pre-emergence action against ALOMY ([12]; 20 g/ha, scored visually after 3 weeks, 100% = plants have died, 0% = like control plants): 80%; Pre-emergence action against VERPE in % [21]: 90% |
